# Reference: ChEMBL document CHEMBL3044701, “Synthesis, characterization and biological activity of Schiff bases derived from metronidazole” (Med Chem Res, 2012)
# Active and inactive are the calls of the source. No cut-off for these calls is given here.
# Experiments:
# [1] = test system: Candida albicans; experiment: Antifungal activity against Candida albicans ATCC 10231 after 24 hr by broth microdilution method; format: functional; details: ATCC 10231, 24 h
# [2] = test system: Staphylococcus aureus; experiment: Antibacterial activity against Staphylococcus aureus ATCC 6538P after 24 hr by broth microdilution method; format: functional
# [3] = test system: Escherichia coli; experiment: Antibacterial activity against Escherichia coli ATCC 8739 after 24 hr by broth microdilution method; format: functional; details: ATCC 8739, 24 h
# [4] = test system: Clostridium sporogenes; experiment: Antibacterial activity against Clostridium sporogenes ATCC 19404 after 24 hr by broth microdilution method; format: functional; details: ATCC 19404, 24 h
# [5] = test system: Giardia intestinalis; experiment: Antigiardial activity against Giardia intestinalis WB by trypan blue assay; format: functional, organism-based; details: Giardia duodenalis
# [6] = test system: Escherichia coli; experiment: Antibacterial activity against Escherichia coli ATCC 8739 up to 1.25 mg/ml after 24 hr by broth microdilution method; format: functional, organism-based
# [7] = test system: Staphylococcus aureus; experiment: Antibacterial activity against Staphylococcus aureus ATCC 6538P up to 1.25 mg/ml after 24 hr by broth microdilution method; format: functional, organism-based
# [8] = test system: Giardia intestinalis; experiment: Ratio of metronidazole IC50 to compound IC50 for Giardia intestinalis; format: functional, Giardia duodenalis
# [9] = test system: Candida albicans; experiment: Antifungal activity against Candida albicans ATCC 10231 up to 1.25 mg/ml after 24 hr by broth microdilution method; format: functional, organism-based
MIC ([1]; read-out: MIC),MIC ([2]; read-out: MIC),MIC ([3]; read-out: MIC),MIC [4],MIC [2],MIC [3],MIC [1],Compound,IC50 [5],Activity [6],Activity [7],Ratio IC50 [8],Activity [9]
340 µM,4340 µM,4340 µM,203 µM,–,–,–,COc1ccc(/C=N/CCn2c([N+](=O)[O-])cnc2C)cc1,2.26 µM,–,–,–,–
450 µM,–,–,257 µM,–,–,–,Cc1ncc([N+](=O)[O-])n1CC/N=C/c1ccc([N+](=O)[O-])cc1,1.83 µM,inactive,inactive,–,–
2070 µM,7100 µM,7100 µM,369 µM,–,–,–,Cc1ncc([N+](=O)[O-])n1CC/N=C/c1cccs1,0.83 µM,–,–,5,–
170 µM,2670 µM,2140 µM,267 µM,–,–,–,Cc1ncc([N+](=O)[O-])n1CC/N=C/c1ccccc1Cl,7.29 µM,–,–,–,–
–,–,–,–,0.036 mg/L,2.3 mg/L,–,CC1(C)S[C@@H]2[C@H](NC(=O)[C@H](N)c3ccccc3)C(=O)N2[C@H]1C(=O)O [AMPICILLIN],–,–,–,–,–
–,8460 µM,8460 µM,376 µM,–,–,–,Cc1ncc([N+](=O)[O-])n1CC/N=C/c1ccncc1,11.2 µM,–,–,–,inactive
440 µM,760 µM,760 µM,1010 µM,–,–,–,Cc1ncc([N+](=O)[O-])n1CC/N=C/c1cc(Cl)ccc1O,4.32 µM,–,–,–,–
–,–,–,–,–,–,2.9 mg/L,Clc1ccc(COC(Cn2ccnc2)c2ccc(Cl)cc2Cl)c(Cl)c1 (centres undefined) [MICONAZOLE],–,–,–,–,–
1000 µM,6890 µM,4370 µM,1440 µM,–,–,–,Cc1ccc(/C=N/CCn2c([N+](=O)[O-])cnc2C)cc1,1.36 µM,–,–,–,–
360 µM,2000 µM,2240 µM,285 µM,–,–,–,Cc1ncc([N+](=O)[O-])n1CC/N=C/c1ccccc1O,2.15 µM,–,–,–,–
1990 µM,5090 µM,4300 µM,1130 µM,–,–,–,Cc1ncc([N+](=O)[O-])n1CC/N=C/c1ccc(F)cc1,2.39 µM,–,–,–,–
–,2050 µM,5480 µM,45.6 µM,–,–,–,Cc1ncc([N+](=O)[O-])n1CCO [METRONIDAZOLE],3.74 µM,–,–,–,inactive
–,8850 µM,8850 µM,236 µM,–,–,–,Cc1ncc([N+](=O)[O-])n1CC/N=C/c1ccco1,2.78 µM,–,–,–,inactive
